According to patent US20250206738A1, “WRN INHIBITORS” (Nimbus Wadjet, Inc., priority 2023, published 2025):

Each compound was assayed against T1, human Werner helicase (WRN, Uniprot Q14191, amino acids 517-1235 with L1074F point mutation; WRN-BV08) (Homo sapiens, UniProt Q14191, L1074F) (assay: WRN (BV08) ADP-Glo assay). Conditions: WRN-BV08 (aa 517-1235, L1074F); read-out: ADP-Glo_hWRN_IC50.
T1 construct: Uniprot Q14191, amino acids 517-1235 with L1074F point mutation; 8xHis (C, cleaved yes); TEV cleavage site (ENLYFQG) (C, cleaved yes); made in house; host or cells: Sf9 insect cells (baculovirus, pFastBac)
T1 sequence (Q14191 with tags, fused parts or gaps L1074F): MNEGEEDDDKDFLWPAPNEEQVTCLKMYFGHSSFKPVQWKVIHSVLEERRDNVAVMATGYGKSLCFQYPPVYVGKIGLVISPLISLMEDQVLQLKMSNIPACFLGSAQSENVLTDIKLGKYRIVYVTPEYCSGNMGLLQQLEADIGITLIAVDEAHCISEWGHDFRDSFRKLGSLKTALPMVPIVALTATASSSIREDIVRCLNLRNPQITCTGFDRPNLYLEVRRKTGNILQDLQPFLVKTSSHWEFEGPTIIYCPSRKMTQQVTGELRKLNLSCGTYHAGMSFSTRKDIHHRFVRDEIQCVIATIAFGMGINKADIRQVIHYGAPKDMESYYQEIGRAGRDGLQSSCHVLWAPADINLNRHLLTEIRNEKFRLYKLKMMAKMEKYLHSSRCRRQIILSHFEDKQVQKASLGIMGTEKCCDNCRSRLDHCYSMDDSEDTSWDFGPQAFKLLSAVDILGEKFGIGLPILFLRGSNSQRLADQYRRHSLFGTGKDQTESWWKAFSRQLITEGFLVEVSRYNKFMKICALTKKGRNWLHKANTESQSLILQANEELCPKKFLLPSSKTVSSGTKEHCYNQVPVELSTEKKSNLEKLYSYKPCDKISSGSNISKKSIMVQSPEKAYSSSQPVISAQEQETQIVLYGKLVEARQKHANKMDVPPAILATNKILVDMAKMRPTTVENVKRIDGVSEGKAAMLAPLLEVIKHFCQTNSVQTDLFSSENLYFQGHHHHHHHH
Format: biochemical
Description: Example 2: WRN (BV08) ADP-Glo Assay Protocol
Bovine skin gelatin (BSG), dimethyl sulfoxide (DMSO), Pluronic F-127 and tris(2-carboxyethyl)phosphine hydrochloride solution (TCEP) were purchased from Sigma-Aldrich (St. Louis, MO) at the highest level of purity possible. Bicine buffer solution was purchased from Alfa Aesar (Tewksbury, MA) and compound NSC-617145 was purchased from Tocris (Minneapolis, MN). DNA duplex was synthesized at BGI (Shenzhen, China) and was composed of strand 1 with the sequence 5′-[…]-3′ (SEQ ID NO.: 1) and strand 2 with the sequence 5′-[…]-3′ (SEQ ID NO.: 2). DNA strands were annealed by heating to 95° C. for 5 minutes followed by slow cooling to room temperature. Compounds in 100% DMSO ([…]) were spotted into a 384-well white polystyrene Optiplate-384 (Perkin Elmer; Waltham, MA) assay plate using a LabCyte Echo 550 (Agilent; Santa Clara, CA). DMSO ([…]) was added to columns 12, rows A-H and column 24, rows I-P for the maximum signal control. Compound NSC-617145 ([…]) was added to columns 12, rows I-P and 24, rows A-H for the minimum signal control (100% inhibition). Compounds/DMSO were preincubated for 15 minutes at 25° C. with […] 2×WRN (BV08), prepared as described below, in assay buffer containing 20 mM Bicine (pH=7.5), 1 mM MgCl2, 10 mM KCl, 0.1% Pluronic F-127, 0.005% BSG, 1 mM TCEP. The reaction was initiated by the addition of […] 2× substrate mixture in assay buffer and incubated for 60 minutes at 25° C. The final concentrations of the assay components were 0.15 nM WRN, […], and 0.1 nM DNA duplex. The final DMSO concentration was 1% and the reference compound concentration (NSC-617145) used for the minimal signal control was […]. The reaction was stopped by the addition of the ADP-Glo Kit components (Promega; Madison, WI) as directed and the relative luminescence units (RLU) were read on an Envision 2104 (Perkin Elmer; Waltham, MA).
% Inhibition Calculation:
Where RLU=relative luminescence units, sample=signal in sample well, and MIN and MAX are the respective minimum and maximum signal controls.
Four-Parameter IC50 Fit Equation:
Where top and bottom are normally allowed to float but may be fixed at 100 or 0 respectively in a 3-parameter fit. Y is the % inhibition and X is the compound concentration.
Molecular Biology and virus production. The DNA encoding human Werner helicase (Uniprot Q14191, amino acids 517-1235 with L1074F point mutation) was generated with codon-optimization for […] expression and subcloned into the pFastBac vector with a TEV cleavable 8×His tag (SEQ ID NO: 5) (WRN—BV08). The baculovirus from the expression plasmid WRN—BV08 was generated from transfection and amplification following the manufacturer's instructions.
Sf9 cells grown in SF900II media were infected with 1:200 WRN—BV08 P2 virus and incubated for protein expression for 72 h at 27° C. The WRN protein was purified using the following protocol. The cell pellets were thawed and resuspended in buffer A (50 mM Tris, pH 7.5, 500 mM NaCl, 1 mM TCEP, 10% Glycerol) supplemented with 0.5% CHAPS, 1 mM PMSF, 1 μg/ml Leupeptin, 1 μg/ml Pepstatin, and the Pierce Universal Nuclease and cocktail tablet. Cleared lysates were loaded onto a Ni Sepharose™ excel column and washed with buffer A and bound protein was eluted with buffer A supplemented with 300 mM imidazole. The eluted protein was dialyzed against buffer A and digested by His-tagged TEV (1:5 ratio) overnight at 4° C. ZnCl2 was added into the sample at final 15 μM before loading onto a second Ni Sepharose™ excel column. Untagged WRN protein was eluted from the column with buffer A supplemented with 20 mM imidazole, dialyzed overnight into buffer B (50 mM Tris, pH 7.5, 1 mM TCEP, 10% Glycerol) supplemented with 150 mM NaCl and loaded onto a Heparin column. Proteins were eluted with a step gradient of buffer B supplemented with 150 mM, 200 mM, 300 mM and 500 mM NaCl. […]

IC50 [µM] | Compound
0.05 to 0.1 | CCc1c(N2CCN(C(=O)c3ncc4c(c3O)CCO4)CC2)c(=O)n2nc(C3=CCOCC3)nc2n1CC(=O)NC12CC(C)(C1)C2 [I-5, 2-(2-(3,6-dihydro-2H-pyran-4-yl)-5-ethyl-6-(4-(4-hydroxy-2,3-dihydrofuro[2,3-c]pyridine-5-carbonyl)piperazin-1-yl)-7-oxo-[1,2,4]triazolo[1,5-a]pyrimidin-4(7H)-yl)-N-(3-methylbicyclo[1.1.1]pentan-1-yl)acetamide]
> 0.5 | CCc1c(N2CCN(C(=O)c3c(OC)ncc(C)c3O)CC2)c(=O)c2nn(-c3ccnc(OC)c3)nc2n1CC(=O)NC12CC(N3CCCC3)(C1)C2 [I-126, 2-{5-ethyl-6-[4-(4-hydroxy-2-methoxy-5-methylpyridine-3-carbonyl)piperazin-1-yl]-2-(2-methoxypyridin-4-yl)-7-oxo-2H,4H,7H-[1,2,3]triazolo[4,5-b]pyridin-4-yl}-N-[3-(pyrrolidin-1-yl)bicyclo[1.1.1]pentan-1-yl]acetamide]
0.005 to 0.05 | CCc1c(N2CCN(C(=O)c3ncnc(C)c3O)[C@H]3CC[C@@H]32)c(=O)c2nn(C3=CCOC(C)C3)nc2n1CC(=O)NC12CC(C3CC3)(C1)C2 (stereo partly drawn) [I-162, N-{3-cyclopropylbicyclo[1.1.1]pentan-1-yl}-2-{5-ethyl-6-[(1S,6S)-5-(5-hydroxy-6-methylpyrimidine-4-carbonyl)-2,5-diazabicyclo[4.2.0]octan-2-yl]-2-(2-methyl-3,6-dihydro-2H-pyran-4-yl)-7-oxo-2H,4H,7H-[1,2,3]triazolo[4,5-b]pyridin-4-yl}acetamide]
0.005 to 0.05 | CCc1c(N2CCN(C(=O)c3ncnc(C)c3O)[C@H]3CC[C@@H]32)c(=O)c2nn(C3=CCOCC3)nc2n1CC(=O)NC1CC2(CCC2)C1 [I-185, 2-[2-(3,6-dihydro-2H-pyran-4-yl)-5-ethyl-6-[(1S,6S)-5-(5-hydroxy-6-methylpyrimidine-4-carbonyl)-2,5-diazabicyclo[4.2.0]octan-2-yl]-7-oxo-2H,4H,7H-[1,2,3]triazolo[4,5-b]pyridin-4-yl]-N-{spiro[3.3]heptan-2-yl}acetamide]
> 0.5 | CCc1c(N2CCN(C(=O)c3ncc4c(c3O)CCO4)CC2)c(=O)n2nc(C3=CCOCC3)nc2n1CC(=O)NC12CC(OC)(C1)C2 [I-12, 2-(2-(3,6-dihydro-2H-pyran-4-yl)-5-ethyl-6-(4-(4-hydroxy-2,3-dihydrofuro[2,3-c]pyridine-5-carbonyl)piperazin-1-yl)-7-oxo-[1,2,4]triazolo[1,5-a]pyrimidin-4(7H)-yl)-N-(3-methoxybicyclo[1.1.1]pentan-1-yl)acetamide]
0.1 to 0.5 | CCc1c(N2CCN(C(=O)c3ncc4c(c3O)CCO4)CC2)c(=O)n2nc(C3=CCOCC3)nc2n1CC(=O)NC12CC(C(F)F)(C1)C2 [I-8, N-(3-(difluoromethyl)bicyclo[1.1.1]pentan-1-yl)-2-(2-(3,6-dihydro-2H-pyran-4-yl)-5-ethyl-6-(4-(4-hydroxy-2,3-dihydrofuro[2,3-c]pyridine-5-carbonyl)piperazin-1-yl)-7-oxo-[1,2,4]triazolo[1,5-a]pyrimidin-4(7H)-yl)acetamide]
0.005 to 0.05 | CCc1c(N2CCN(C(=O)c3c(O)c(F)cc4ncoc34)[C@H]3CC[C@@H]32)c(=O)c2nn(C3=CCOCC3)nc2n1CC(=O)NC12CC(C3CC3)(C1)C2 [I-182, N-{3-cyclopropylbicyclo[1.1.1]pentan-1-yl}-2-[2-(3,6-dihydro-2H-pyran-4-yl)-5-ethyl-6-[(1S,6S)-5-(5-fluoro-6-hydroxy-1,3-benzoxazole-7-carbonyl)-2,5-diazabicyclo[4.2.0]octan-2-yl]-7-oxo-2H,4H,7H-[1,2,3]triazolo[4,5-b]pyridin-4-yl]acetamide]

Second part, the compound before the results:

Compound | IC50 [µM]
CCc1c(N2CCN(C(=O)c3ncnc(C)c3O)[C@H]3CC[C@@H]32)c(=O)c2nn(-c3ccc(OC)cc3)nc2n1CC(=O)NC12CC(C(C)C)(C1)C2 [I-145, 2-{5-ethyl-6-[(1S,6S)-5-(5-hydroxy-6-methylpyrimidine-4-carbonyl)-2,5-diazabicyclo[4.2.0]octan-2-yl]-2-(4-methoxyphenyl)-7-oxo-2H,4H,7H-[1,2,3]triazolo[4,5-b]pyridin-4-yl}-N-[3-(propan-2-yl)bicyclo[1.1.1]pentan-1-yl]acetamide] | ≤ 0.005
CCc1c(N2CCN(C(=O)c3ncnc(C)c3O)[C@H]3CCC[C@@H]32)c(=O)c2nn(-c3ccnc(OC)c3)nc2n1CC(=O)NC12CC(C3CC3)(C1)C2 [I-54, 2-{6-[(4aS,7aS)-4-(5-hydroxy-6-methylpyrimidine-4-carbonyl)-octahydro-1H-cyclopenta[b]pyrazin-1-yl]-5-ethyl-2-(2-methoxypyridin-4-yl)-7-oxo-2H,4H,7H-[1,2,3]triazolo[4,5-b]pyridin-4-yl}-N-{3-cyclopropylbicyclo[1.1.1]pentan-1-yl}acetamide] | 0.005 to 0.05
CCc1c(N2CCN(C(=O)c3ncnc(C)c3O)[C@H]3CC[C@@H]32)c(=O)c2nn(-c3ccn(C4CC4)n3)nc2n1CC(=O)NC12CC(C(C)C)(C1)C2 [I-78, 2-[2-(1-cyclopropyl-1H-pyrazol-3-yl)-5-ethyl-6-[(1S,6S)-5-(5-hydroxy-6-methylpyrimidine-4-carbonyl)-2,5-diazabicyclo[4.2.0]octan-2-yl]-7-oxo-2H,4H,7H-[1,2,3]triazolo[4,5-b]pyridin-4-yl]-N-[3-(propan-2-yl)bicyclo[1.1.1]pentan-1-yl]acetamide] | 0.005 to 0.05
CCc1c(N2CCN(C(=O)c3c(OC)ncc(F)c3O)[C@H]3CC[C@@H]32)c(=O)c2nn(-c3ccnc(OC)c3)nc2n1CC(=O)NC12CC(C(C)C)(C1)C2 [I-166, 2-{5-ethyl-6-[(1S,6S)-5-(5-fluoro-4-hydroxy-2-methoxypyridine-3-carbonyl)-2,5-diazabicyclo[4.2.0]octan-2-yl]-2-(2-methoxypyridin-4-yl)-7-oxo-2H,4H,7H-[1,2,3]triazolo[4,5-b]pyridin-4-yl}-N-[3-(propan-2-yl)bicyclo[1.1.1]pentan-1-yl]acetamide] | ≤ 0.005
CCc1c(N2CCN(C(=O)c3c(O)ccc4ncoc34)[C@H]3CC[C@@H]32)c(=O)c2nn(-c3ccnc(OC)c3)nc2n1CC(=O)NC12CC(C(C)C)(C1)C2 [I-136, 2-{5-ethyl-6-[(1S,6S)-5-(6-hydroxy-1,3-benzoxazole-7-carbonyl)-2,5-diazabicyclo[4.2.0]octan-2-yl]-2-(2-methoxypyridin-4-yl)-7-oxo-2H,4H,7H-[1,2,3]triazolo[4,5-b]pyridin-4-yl}-N-[3-(propan-2-yl)bicyclo[1.1.1]pentan-1-yl]acetamide] | ≤ 0.005
CCc1c(N2CCN(C(=O)c3ncnc(C)c3O)[C@H]3CC[C@@H]32)c(=O)c2nn(-c3ccnc(OC)c3)cc2n1CC(=O)NC12CC(C3CC3)(C1)C2 [I-177, N-{3-cyclopropylbicyclo[1.1.1]pentan-1-yl}-2-{5-ethyl-6-[(1S,6S)-5-(5-hydroxy-6-methylpyrimidine-4-carbonyl)-2,5-diazabicyclo[4.2.0]octan-2-yl]-2-(2-methoxypyridin-4-yl)-7-oxo-2H,4H,7H-pyrazolo[4,3-b]pyridin-4-yl}acetamide] | 0.005 to 0.05
